{
  "source": "patent US6262073A",
  "about": "“Pharmaceutical methods of use of 5-substituted and 5,5 disubstituted-3,4-dihydroxy-2(5H)-furanones” (Oxis International Inc., priority 2000, dated 2001)",
  "key": {"[1]": {"test_system": "platelet aggregation", "conditions": "read-out: AA-induced platelet aggregation (AAIPA) IC50; cited from earlier work"}, "[2]": {"test_system": "LTB4 production", "conditions": "stimulated macrophages; read-out: Inhibition of LTB4 production IC50; cited from earlier work"}, "[3]": {"test_system": "PGE2 production", "conditions": "stimulated macrophages; read-out: Inhibition of PGE2 production IC50; cited from earlier work"}, "[4]": {"test_system": "platelet function", "conditions": "cited from earlier work"}, "[5]": {"test_system": "NF-κB", "test": "NF-κB nuclear membrane translocation, EMSA, LPS-treated NR8383 cells", "assay_type": "cell-based", "conditions": "Rattus norvegicus; 10,000 nM; LPS 1 μg/ml; NR8383 cells; 6 hours", "description": "Experiments measuring test agents effect on NF-κB nuclear membrane translocation were performed with NR8383 cells, which are transformed rat alveolar macrophages. […] In addition, some compounds were tested at doses of 10 and 30 μM. Untreated control cells and cells treated with LPS alone were tested in each experiment. Cells were harvested 6 hours after treatment. Nuclear proteins were extracted, frozen and quantified using the Bradford assay. Electrophoretic mobility shift assays (EMSA) were subsequently analyzed using a radiolabeled NF-κB probe. Nuclear proteins were reacted with the radiolabeled probe, run on a 5% polyacrylamide gel, and subjected to autoradiography. Specificity of protein binding for the NF-κB binding site was assayed by cold and nonspecific competition using the LPS treated sample in each experiment. All EMSA were duplicated at least once to verify results. Laser densitometry of NF-κB bands was done on autoradiographs to quantify NF-κB binding activity."}, "[6]": {"test_system": "NF-κB", "conditions": "cited from earlier work"}},
  "data": [
    {"smiles": "CCCCC/C=C\\C/C=C\\C/C=C\\C/C=C\\CC[C@@H]1OC(=O)C(O)=C1O", "note": "[(S)-3,4-dihydroxy-5[(all Z)-3,6,9,12-octadecatraenyl]-2 (5H)-furanone]", "values": [
      {"measurement": "IC50", "setting": "[1]", "value": "< 10", "unit": "µM"},
      {"measurement": "IC50", "setting": "[2]", "value": 20, "unit": "µM"},
      {"measurement": "IC50", "setting": "[3]", "value": 20, "unit": "µM"}
    ]},
    {"smiles": "O=C1OC(c2ccc(Cl)cc2)C(O)=C1O", "note": "(stereo not drawn) [CHTA, 4-(4-chlorophenyl)-2-hydroxytetronic acid]", "values": [
      {"measurement": "Inhibition of platelet function", "setting": "[4]", "value": "inhibits platelet function by a similar mechanism, involving arachidonic acid release"}
    ]},
    {"smiles": "S=C(S)N1CCCC1", "note": "[Pyrrolidone dithiocarbamate (PDTC), Pyrrolidone dithiocarbamate]", "values": [
      {"measurement": "inhibition at 10 µM", "setting": "[5]", "value": 50, "unit": "%"},
      {"measurement": "Inhibition of H2O2 and extracellular cytokine-induced activation of NF-κB", "setting": "[6]", "value": "inhibit both the H2 O2 and extracellular cytokine-induced activation of NF-κB in a concentration dependent manner"}
    ]}
  ]
}
